According to patent US6794509B1, “Compounds for fluorescence labeling” (Fuji Photo Film Co., Ltd., priority 1999, dated 2004):

Experiments:
[1] = Comparison of relative fluorescence quantum yield (absorption and fluorescence spectra of dye solutions); assay type: physicochemical; details: for Absorption maximum (nm) / Fluorescence maximum (nm): ethanol solution of dye; for Fluorescence maximum (nm) / Relative fluorescence quantum yield: absorbance 0.1 at 620 nm; for Fluorescence maximum (nm): spectrum measured at 620 nm; for Relative fluorescence quantum yield: ethanol solution, area of fluorescence spectrum relative to Crystal Violet (Φf=0.54)
Experimental: Measurement and calculation of relative quantum yield were performed according to the method described in Journal of Chemical Society, Faraday Trans., 92, 4917-4925 (1996). The structures of the conventional cyanine dye used as comparative dyes are shown below.
(2) Fluorescence spectrum was measured at an […] wavelength of 620 nm.
(3) Area value of fluorescence spectrum was calculated.
(4) Relative value was calculated based on the area value of Crystal Violet of which absolute fluorescence quantum yield was known (Φf=0.54).

[2] = known value of the standard; cited from earlier work

SMILES | Absorption maximum (nm) [1] | Fluorescence maximum (nm) [1] | Relative fluorescence quantum yield [1] | absolute fluorescence quantum yield (Φf) [2]
CC(CCN1C=C(C#Cc2ccc(N(CCCS(=O)(=O)[O-])S(C)(=O)=O)cc2)C=C2C1=N/C(=C\C=C\C1=Nc3c(cc(C#Cc4ccc(N(CCCCCC(=O)O)S(C)(=O)=O)cc4)c[n+]3CCC(C)S(=O)(=O)[O-])C1(C)C)C2(C)C)S(=O)(=O)[O-].[K+].[K+] (stereo not shown) [Compound I-13] | 651 nm | 672 nm | 0.63 | 
CC1(C)C2=CC(C#Cc3cccc(N(CCCS(=O)(=O)[O-])S(C)(=O)=O)c3)=CN(CCCCCC(=O)O)C2=N/C1=C\C=C\C1=Nc2c(cc(C#Cc3cccc(N(CCCS(=O)(=O)[O-])S(C)(=O)=O)c3)c[n+]2CCCS(=O)(=O)[O-])C1(C)C.[K+].[K+] [Compound I-12] | 650 nm | 671 nm | 0.62 | 
CC(CC[n+]1cc(C#Cc2ccc(N(CCCS(=O)(=O)[O-])S(C)(=O)=O)cc2)cc2c1N=C(/C=C/C=C1\N=C3C(=CC(C#Cc4ccc(N(CCCS(=O)(=O)[O-])S(C)(=O)=O)cc4)=CN3CCCCCC(=O)O)C1(C)C)C2(C)C)S(=O)(=O)[O-].[K+].[K+] (stereo not shown) [Compound I-11] | 651 nm | 672 nm | 0.63 | 
CN(C)c1ccc(C(=C2C=CC(=[N+](C)C)C=C2)c2ccc(N(C)C)cc2)cc1 [Crystal Violet] |  |  |  | 0.54
CC[N+]1=C(/C=C/C=C/C=C2/N(CCCCCC(=O)O)c3ccc(S(=O)(=O)[O-])cc3C2(C)C)C(C)(C)c2cc(S(=O)(=O)[O-])ccc21.[K+] [compound 2, reference compound] | 645 nm | 664 nm | 0.27 | 
